Data set [1] has as its system liver disorder induced by carbon tetrachloride. The data set can be described thus: GOT and GPT tests in mice with liver disorder induced by carbon tetrachloride. In kind it is in vivo, ddY mice. The method, then:
Carbon tetrachloride (5 ml, Wako Pure Chemicals) was put in a glass vial, and Panasate 800 (45 ml, Nippon Yushi Chemicals Co, Ltd.) was added to prepare a 10% (v/v) solution.
Subsequently,the total amount was made to 50 ml. An aliquot of 2 ml was diluted in 38 ml of physiological saline.
One group consisted of 10 mice. For 24 hours prior to the administration of tetrachloride, each mouse was fasted by being fed water only. 10% carbon tetrachloride/Panasate solution was intraperitoneally administered to each mice at a dose of 1 ml/kg.
Blood was collected from the abdominal aorta by use of 1-ml disposable syringes (Terumo). The blood, dispensed into 1.5 ml Eppendorf tubes, was subjected to centrifugal separation at 5,000 rpm for 10 minutes to thereby obtain serum. The activity of transaminase (GOT, GPT) in the serum thus obtained was measured. The measurement was performed by use of a Cobas Mira System (Baxter).

Data set [2] concerns rat hepatocyte system in primary culture.
Method: In separation and identification of the low molecular weight factor showing hepatocyte proliferation promoting activity derived from epithelial mucosa of the bovine small intestine, the rat hepatocyte system in primary culture was used. To this culture system, a fraction of a crude extract of bovine small intestine epithelial mucosa in the course of purification was added in the presence of high molecular weight factor extract (1%) and insulin (10 μg/ml) or in the presence of EGF (20 ng/ml) and insulin (10 μg/ml), to thereby establish an assay system for measuring the uptake of ^3 H-TdR into DNA of rat hepatocyte nuclei.
Fractions each amounting 15 ml was added to the above-mentioned assay system and the uptake of ^3 H-TdR was measured.
Another data set relates to mice (ICR, female). The data set can be described thus: Acute Toxicity Test. The following applies: intraperitoneal. In kind it is in vivo. The method, then:
The pH was adjusted to 7.0 by use of 5N NaOH. Solutions having lower concentrations were prepared by dilution with physiological saline. Each solution (10 μl) was intraperitoneally injected to mice (ICR, female, 6-weeks old, 29 g), and the survival ratio was obtained.

Setting [3] is: intraperitoneal, 2.8 mg/kg, 2 times.

Where a name gives a salt, the structure may show the parent alone. Read-outs that look alike come from different tables or passages of the source.

As to `NCCO` [ethanolamine, monoethanolamine], the “area of necrosis in histopathological profile of the liver” value in data set [1] (2.8 mg/kg i.p. and 16 mg/kg p.o.) is given as “tendency that the area of necrosis was reduced”. Also, the “serum GOT level” value is on record as “significantly decreased” in data set [1] (setting [3]) and “significantly decreased” in data set [1] (peroral, 16 mg/kg, once). Further, the “serum GPT level” value is “significantly decreased” in data set [1] (setting [3]) and “significantly decreased” in data set [1] (peroral, 16 mg/kg, once). Further, the 3H-TdR uptake activity result in data set [2] (in the presence of EGF) and in data set [2] (in the presence of the high molecular weight factor extract) was “synergistic growth-stimulating effects” in each case.

As to `NCCO` [EA-HC1, monoethanolamine-HCl], the Survival is given as 4/4 with mice (ICR, female) (0.5 g/kg (as EA), 1 day after admin.); 4/4 in the data set on mice (ICR, female) (0.5 g/kg (as EA), 6 days after admin.); 4/4 with mice (ICR, female) (0.5 g/kg (as EA), day of administration); 3/3 in the data set on mice (ICR, female) (1.25 g/kg (as EA), 1 day after admin.); 3/3 in the data set with mice (ICR, female) (1.25 g/kg (as EA), 6 days after admin.); 3/3 in the data set on mice (ICR, female) (1.25 g/kg (as EA), day of administration). Also, the Survival in the data set on mice (ICR, female) (2.5 g/kg (as EA), day of administration) is recorded as 0/4; with mice (ICR, female) (5.0 g/kg (as EA), day of administration) it was 0/4; in the data set on mice (ICR, female) (doses equal to or less than 1.25 g/kg, six days) it was “alive when six days had passed”. The “time to death after administration” value is at most 30 min with mice (ICR, female) (2.5 g/kg) and at most 30 min in the data set on mice (ICR, female) (5.0 g/kg).
